According to US10973789B2, “Compositions and methods for treating skin conditions using light and polycarboxylic acids” (Johnson & Johnson Consumer Inc., priority 2017, dated 2021):
Read-outs that look alike come from different tables or passages of the source.

Tested on: Propionibacterium acnes ATCC 6919
Experimental: The sample is then recovered onto agar and incubated 5-7 days until clear colonies are visible. […] The anti-P. acnes activity of various test treatments were compared. Anti-P. acnes activity was measured using the in vitro method described above. The test treatments comprised either 0.1 or 0.25 weight percent of succinic acid in reinforced clostridial media with and without the administration of 440 nm blue light. […] Non-control test samples were adjusted to a pH of 4.5.

Question: Which results are given for O=C(O)CCC(=O)O [Succinic Acid, Succinic acid (butanedioic acid)]?
Answer: antimicrobial activity of the combination relative to the expected additive reduction (0.1% succinic acid + light: 6.7 log reduction vs additive 2.6 log reduction): about 12,000 times; reduction of P. acnes bacterial count (0.1% succinic acid combined with light): 6.7 logs; Log 10 reduction vs Control Solution (0.1% succinic acid in reinforced clostridial media, pH 4.5, no light): 2.0 Log 10; reduction of P. acnes bacterial count (0.1% succinic acid, no light, compared to untreated control solution): 2 logs; Log 10 reduction vs Control Solution (0.1% succinic acid, pH 4.5, + 440 nm blue light): >6.7 Log 10; antimicrobial activity of the combination relative to the expected additive reduction (0.25% succinic acid + light: 6.7 log reduction vs additive 6.2 log reduction): about 3 times; reduction of P. acnes bacterial count (0.25% succinic acid combined with light): 6.7 logs; Log 10 reduction vs Control Solution (0.25% succinic acid in reinforced clostridial media, pH 4.5, no light): 5.6 Log 10; reduction of P. acnes bacterial count (0.25% succinic acid, no light, compared to untreated control solution): 5.6 logs; Log 10 reduction vs Control Solution (0.25% succinic acid, pH 4.5, + 440 nm blue light): >6.7 Log 10
